Reference: US20170348258A1, “3-Amino Benzamide Derivative Serving As B-Lactam Auxiliary Antibiotic, Preparation Method and Use Thereof” (THE HONG KONG POLYTECHNIC UNIVERSITY, priority 2014, published 2017)

Columns and labels:
[1] = target: T1, B. subtilis FtsZ-eGFP fusion protein (Bacillus subtilis, UniProt P17865); assay: Fluorescence microscopy of FtsZ-eGFP localization; type: cell-based; conditions: 3 μM F332, 4 hours
T1 construct: expressed in transfected cells; host or cells: B. subtilis 168 transformed with pFZ-FtsZ-eGFP
Method: The localization of the filamentation in B. subtilis that induced by F332 was performed by fluorescence microscopy using the cell division protein FtsZ identified by a green fluorescent protein. The expression plasmid of the FtsZ-eGFP fusion protein was constructed as follows (the structure of the plasmid was shown in FIG. 10a).
to amplify the eGFP gene fragment, with about 700 base pairs. Two fragments were ligated by overlap extension PCR method and then digested with endonucleases EcoRI and BamHI. They were ligated into the corresponding cleavage site of pFZ2.0 and transformed into E. coli BL21 (DE3) and screened on chloramphenicol plates to obtain the plasmid pFZ-FtsZ-eGFP. The plasmid extracted was transformed into B. subtilis 168 and grown in LB medium containing chloramphenicol. The expression of FtsZ-eGFP gene was observed by adding different concentrations of lactose or IPTG
The B. subtilis shown in FIGS. 10b and 10c was cultured in the absence of F332.
The B. subtilis shown in FIGS. 10d and 10e was cultured in the presence of F332. […] Thus, the expression of the protein was not only at the position where cell division was performed.

[2] = tested on: MRSA strain 2490; assay: FICI of F332 with antibiotics; type: cell-based, S. aureus
[3] = tested on: MRSA strain 231; assay: FICI of F332 with antibiotics; type: cell-based, S. aureus
[4] = tested on: MRSA strain 417; assay: FICI of F332 with antibiotics; type: cell-based, S. aureus
[5] = tested on: MRSA strain 1344; assay: FICI of F332 with antibiotics; type: cell-based, S. aureus
[6] = tested on: MRSA strain 2901; assay: FICI of F332 with antibiotics; type: cell-based, S. aureus
[7] = tested on: MRSA strain 256; assay: FICI of F332 with antibiotics; type: cell-based, S. aureus
[8] = tested on: MRSA strain 3332; assay: FICI of F332 with antibiotics; type: cell-based, S. aureus
[9] = tested on: MRSA strain 2516; assay: FICI of F332 with antibiotics; type: cell-based, S. aureus
[10] = tested on: MRSA strain 3267; assay: FICI of F332 with antibiotics; type: cell-based, S. aureus
[11] = tested on: MRSA strain 757; assay: FICI of F332 with antibiotics; type: cell-based, S. aureus
Method: The bacterial strains used in this study were clinically isolated MRSA strains USA300#757 and #2960 which were obtained from our laboratory. Determination of the Fractional Inhibitory Concentration Index (FICI) was adopted by the Müller-Hinton broth (MHB) dilution method as previously described. Twelve serial two-fold dilutions of PC190723, F332 and F361 were prepared in the 96-well microplate with concentration ranging from 512 to 0.25 μg/mL. […] Lastly, the compounds and the β-lactams were mixed at a 1:1 ratio and subjected to two-fold dilution as described previously. Each microplate well contained 100 μL of MHB supplemented with compounds alone, β-lactams alone or the mixture of compounds and β-lactams. Overnight cultures of S. aureus in the Müller-Hinton broth was diluted to OD595 of 0.08-0.1 in saline and added in each of the microplate well. The plates were incubated at 37° C. for 20 h. All tests were performed in duplicate and the inhibition of bacterial growth was determined by visualization. The FICI of compounds and β-lactams were calculated as followed: FICI=(MIC of combination of compound and β-lactam/MIC of compound alone)+(MIC of combination of compound and β-lactam/MIC of β-lactam alone).

[12] = tested on: MRSA strain #1749 (ATCC strain); assay: FICI of F332 with antibiotics; type: cell-based, S. aureus
[13] = tested on: MRSA strain 2728; assay: FICI of F332 with antibiotics; type: cell-based, S. aureus
[14] = tested on: MRSA strain 774; assay: FICI of F332 with antibiotics; type: cell-based, S. aureus
[15] = tested on: MRSA strain 2973; assay: FICI of F332 with antibiotics; type: cell-based, S. aureus
[16] = tested on: MRSA strain 1449; assay: FICI of F332 with antibiotics; type: cell-based, S. aureus

SMILES: CCCCCCCCCNc1ccc(F)c(C(N)=O)c1F [Compound F332, 2,6-difluoro-3-(nonylamino)benzamide]
- localization of FtsZ-eGFP in B. subtilis 168 cells [1]: Green fluorescence appeared in multiple parts of B. subtilis cells
- FICI of F332 combined with Amoxicillin [2]: 0.56
- FICI of F332 combined with Cefuroxime [2]: 0.19
- FICI of F332 combined with Cloxacillin [2]: 0.56
- FICI of F332 combined with Meropenem [2]: 2.25
- FICI of F332 combined with Meticillin [2]: 0.25
- FICI of F332 combined with Amoxicillin [3]: 0.52
- FICI of F332 combined with Cefuroxime [3]: 0.50
- FICI of F332 combined with Cloxacillin [3]: 0.28
- FICI of F332 combined with Meropenem [3]: 0.63
- FICI of F332 combined with Meticillin [3]: 0.50
- FICI of F332 combined with Amoxicillin [4]: 0.27
- FICI of F332 combined with Cefuroxime [4]: 0.06
- FICI of F332 combined with Cloxacillin [4]: 0.09
- FICI of F332 combined with Meropenem [4]: 0.19
- FICI of F332 combined with Meticillin [4]: 0.06
- FICI of F332 combined with Amoxicillin [5]: 1.13
- FICI of F332 combined with Cefuroxime [5]: 0.27
- FICI of F332 combined with Cloxacillin [5]: 0.13
- FICI of F332 combined with Meropenem [5]: 2.00
- FICI of F332 combined with Meticillin [5]: 0.27
- FICI of F332 combined with Amoxicillin [6]: 0.06
- FICI of F332 combined with Cefuroxime [6]: 0.13
- FICI of F332 combined with Cloxacillin [6]: 0.25
- FICI of F332 combined with Meropenem [6]: 4.01
- FICI of F332 combined with Meticillin [6]: 0.01
- FICI of F332 combined with Amoxicillin [7]: 0.08
- FICI of F332 combined with Cefuroxime [7]: 0.01
- FICI of F332 combined with Cloxacillin [7]: 0.13
- FICI of F332 combined with Meropenem [7]: 4.01
- FICI of F332 combined with Meticillin [7]: 0.04
- FICI of F332 combined with Amoxicillin [8]: 0.63
- FICI of F332 combined with Cefuroxime [8]: 0.13
- FICI of F332 combined with Cloxacillin [8]: 0.38
- FICI of F332 combined with Meropenem [8]: 2.25
- FICI of F332 combined with Meticillin [8]: 0.28
- FICI of F332 combined with Amoxicillin [9]: 0.38
- FICI of F332 combined with Cefuroxime [9]: 0.07
- FICI of F332 combined with Cloxacillin [9]: 0.19
- FICI of F332 combined with Meropenem [9]: 0.38
- FICI of F332 combined with Meticillin [9]: 0.19
- FICI of F332 combined with Amoxicillin [10]: 0.25
- FICI of F332 combined with Cefuroxime [10]: 0.01
- FICI of F332 combined with Cloxacillin [10]: 0.25
- FICI of F332 combined with Meropenem [10]: 4.01
- FICI of F332 combined with Meticillin [10]: 0.07
- FICI of F332 combined with Amoxicillin [11]: 0.27
- FICI of F332 combined with Cefuroxime [11]: 0.08
- FICI of F332 combined with Cloxacillin [11]: 0.13
- FICI of F332 combined with Meropenem [11]: 1.06
- FICI of F332 combined with Meticillin [11]: 0.09
- FICI of F332 combined with Amoxicillin [12]: 1.03
- FICI of F332 combined with Cefuroxime [12]: 1.13
- FICI of F332 combined with Cloxacillin [12]: 1.25
- FICI of F332 combined with Meropenem [12]: 10.0
- FICI of F332 combined with Meticillin [12]: 1.06
- FICI of F332 combined with Amoxicillin [13]: 0.08
- FICI of F332 combined with Cefuroxime [13]: 0.14
- FICI of F332 combined with Cloxacillin [13]: 1.01
- FICI of F332 combined with Meropenem [13]: 2.03
- FICI of F332 combined with Meticillin [13]: 0.16
- FICI of F332 combined with Amoxicillin [14]: 0.03
- FICI of F332 combined with Cefuroxime [14]: 0.01
- FICI of F332 combined with Cloxacillin [14]: 0.50
- FICI of F332 combined with Meropenem [14]: 0.13
- FICI of F332 combined with Meticillin [14]: 0.26
- FICI of F332 combined with Amoxicillin [15]: 0.08
- FICI of F332 combined with Cefuroxime [15]: 0.53
- FICI of F332 combined with Cloxacillin [15]: 0.07
- FICI of F332 combined with Meropenem [15]: 4.03
- FICI of F332 combined with Meticillin [15]: 0.28
- FICI of F332 combined with Amoxicillin [16]: 0.38
- FICI of F332 combined with Cefuroxime [16]: 1.50
- FICI of F332 combined with Cloxacillin [16]: 0.63
- FICI of F332 combined with Meropenem [16]: 33.0
- FICI of F332 combined with Meticillin [16]: 0.75
